In US11040016B2, “Composition for alleviating, preventing or treating female menopausal symptoms, containing, as active ingredient, pinitol, D-chiro-inositol or analog compounds thereof” (DY NATURAL CO., LTD, priority 2016, dated 2021):

Experiments:
[1] = system: 17β-estradiol; test: 17β-estradiol level in the blood of white rats after 8 weeks oral administration (ELISA); type: in vivo, Sprague-Dawley (SD) white rats; conditions: female SD rats, 10, 20, 40 mg/kg oral once a day for 8 weeks, vs physiological saline
Experimental: Pinitol and D-chiro-inositol were purchased from Biosearch Life (Camino de Purchil, 66. 18004 Granada, Spain). Six-month-old female Sprague-Dawley (SD) white rats (Orient, Korea) were divided into a test group administered with pinitol or D-chiro-inositol and a control group administered with physiological saline while ten animals were used in the test for each of the groups. The rats were bred in a breeding room controlled under a temperature of 22±1° C., humidity of 55±1%, and 12-hour light/dark cycle. The rats were given free access to food and water, and for 7 days after entrance, the rats were acclimated for the breeding environment, and then were used for tests. Physiological saline and pinitol or D-chiro-inositol were orally administered at various doses (10 mg/kg, 20 mg/kg, or 40 mg/kg) at the same amount once a day for 8 weeks. […] The levels of hormones and proteins in the blood were measured according to the manufacturer's manual by using the ELISA kit (Enzo Life Sciences, U.S.A.) for measurement of 17β-estradiol or sex-hormone binding globulin (SHBG) in the blood. […] After the completion of the last administration, the 17β-estradiol and sex-hormone binding globulin (SHBG) levels in the blood were measured by ELISA kit. […]

[2] = system: sex-hormone binding globulin (SHBG); test: SHBG level in the blood of white rats after 8 weeks oral administration (ELISA); type: in vivo, Sprague-Dawley (SD) white rats; conditions: female SD rats
Experimental: Pinitol and D-chiro-inositol were purchased from Biosearch Life (Camino de Purchil, 66. 18004 Granada, Spain). Six-month-old female Sprague-Dawley (SD) white rats (Orient, Korea) were divided into a test group administered with pinitol or D-chiro-inositol and a control group administered with physiological saline while ten animals were used in the test for each of the groups. The rats were bred in a breeding room controlled under a temperature of 22±1° C., humidity of 55±1%, and 12-hour light/dark cycle. The rats were given free access to food and water, and for 7 days after entrance, the rats were acclimated for the breeding environment, and then were used for tests. Physiological saline and pinitol or D-chiro-inositol were orally administered at various doses (10 mg/kg, 20 mg/kg, or 40 mg/kg) at the same amount once a day for 8 weeks. After the last oral administration, the rats were fasted overnight and then anesthetized with ether, and the abdomen was cut open, and then blood was collected from the abdominal vein. The collected blood was transferred to a heparinized tube, followed by centrifugation at 2.500 rpm for 15 minutes for 4° C., thereby separating serum and plasma. The separated blood was stored at −80° C. until the next test. The levels of hormones and proteins in the blood were measured according to the manufacturer's manual by using the ELISA kit (Enzo Life Sciences, U.S.A.) for measurement of 17β-estradiol or sex-hormone binding globulin (SHBG) in the blood. In order to analyze the effects of pinitol or D-chiro-inositol (DCI) on the levels or activity of female hormones, which are blood indexes associated with menopausal symptoms, in female mature Sprague-Dawley (SD) white rats, a test was conducted. The physiological saline for the control group or pinitol or D-chiro-inositol (10 mg/kg, 20 mg/kg, and 40 mg/kg) for the test groups were orally administered at the predetermined time once a day for 8 weeks. After the completion of the last administration, the 17β-estradiol and sex-hormone binding globulin (SHBG) levels in the blood were measured by ELISA kit. […] Therefore, it could be confirmed that the SHBG level in the blood was decreased by pinitol or D-chiro-inositol, leading to increases in activity of female hormones. According to the test results, it was confirmed that both pinitol and D-chiro-inositol can alleviate female menopause symptoms by increasing the 17β-estradiol levels in the blood and decreasing the SHBG levels in the blood.

[3] = system: 17β-estradiol; test: 17β-estradiol level in the blood of middle-aged women after 8 weeks administration (ELISA); type: in vivo; conditions: middle-aged women, 600, 1,200, 2,400 mg a day for 8 weeks
Experimental: (§1) Forty middle-aged women aged 40 or more were divided into four groups each having ten women, and the four groups were designated as a control group taking a placebo and three test groups taking pinitol. Similarly, forty middle-aged women aged 40 or more were divided into four groups each having ten women, and the four groups were designated as a control group taking a placebo and three test groups taking D-chiro-inositol. Thereafter, the placebo, pinitol, or D-chiro-inositol was administered at various concentrations for 8 weeks in a double-blind fashion. The pinitol, D-chiro-inositol, or placebo was administered at 600 mg, 1,200 mg, and 2,400 mg a day. The blood was taken from the arm vein at the same time, 2:00 pm, before intake and after the last intake, and then transferred to heparinized tubes, followed by centrifugation at 2,500 rpm (4° C.) for 15 minutes, and therefore, the plasma was separated by transfer to new tubes. The separated plasma was used to measure sex hormone levels in the blood. The levels of hormones and proteins in the blood were measured according to the manufacturer's manual by using the ELISA kit (Enzo Life Sciences, U.S.A.) for measurement of 17β-estradiol or sex-hormone binding globulin (SHBG) in the blood. In order to analyze the effects of pinitol and D-chiro-inositol on sex hormones in middle-aged women, forty middle-aged 40 or more were divided into four groups each having ten women, and the four groups were designated as a control group taking a placebo and three test groups taking pinitol. Similarly, forty middle-aged women aged 40 or more were divided into four groups each having ten women, and the four groups were designated as a control group taking a placebo and three test groups taking D-chiro-inositol. Thereafter, the placebo, pinitol, or D-chiro-inositol was administered at various concentrations for 8 weeks in a double-blind fashion. The pinitol or D-chiro-inositol was administered at 600 mg, 1,200 mg, and 2,400 mg a day for 8 weeks. As a result of the test, there was no significant change in 17β-estradiol level in the blood in the women between pre- and pro-administration of the placebo. […] According to the test results, it could be confirmed that, similar to the results in the white rats, pinitol and D-chiro-inositol can alleviate female menopause symptoms by increasing the 17β-estradiol levels in the blood and decreasing the SHBG levels in the blood.

[4] = system: sex-hormone binding globulin (SHBG); test: SHBG level in the blood of middle-aged women after 8 weeks administration (ELISA); type: in vivo
Experimental: as §1, with “The pinitol, D-chiro-inositol, or placebo was administered at 600 mg, 1,200 mg, and 2,400 mg a day.” left out, “The pinitol or D-chiro-inositol was administered at 600 mg, 1,200 mg, and 2,400 mg a day for 8 weeks.” left out

[5] = system: middle-aged women; test: Menopause Rating Scale (MRS) survey in middle-aged women; type: in vivo; conditions: for alleviation rate of menopausal symptoms: MRS vs placebo; for MRS score post-taking compared with placebo taking group and pre-taking: middle-aged women, 600, 1,200, 2,400 mg once a day for 8 weeks
Experimental: Forty middle-aged women aged 40 or more were divided into four groups each having ten women, and the four groups were designated as a control group taking a placebo and three test groups taking pinitol. Similarly, forty middle-aged women aged 40 or more were divided into four groups each having ten women, and the four groups were designated as a control group taking a placebo and three test groups taking D-chiro-inositol. Thereafter, the placebo, pinitol, or D-chiro-inositol was administered at various concentrations for 8 weeks in a double-blind fashion. The pinitol, D-chiro-inositol, or placebo was administered at 600 mg, 1,200 mg, and 2,400 mg a day. The blood was taken from the arm vein at the same time, 2:00 pm, before intake and after the last intake, and then transferred to heparinized tubes, followed by centrifugation at 2,500 rpm (4° C.) for 15 minutes, and therefore, the plasma was separated by transfer to new tubes. The separated plasma was used to measure sex hormone levels in the blood. Since subjective symptoms account for a large proportion of menopausal symptoms, several measures are used to assess the degrees of menopausal clinical symptoms. For assessment of menopausal clinical symptoms, Kupperman's index has been used for a long time. However, questions of vaginal dryness, reduction of sexual desire, and the like, are missing in the Kupperman's index, and therefore, the Menopause Rating Scale (MRS) and the Menopause-Specific Quality of Life Questionnaire (MENQOL), which are questionnaires supplementing such questions, are being widely used in current clinical trials. The MRS has been globally recognized to have reliability and feasibility due to its advantages of having a small number of questions, a total of 11 questions, and being simple and convenient, and thus the MRS is being recited in many studies (Table 1). In the present invention, the severity of menopausal symptoms was measured and analyzed by allowing the above middle-aged women clinical subjects to fill out the MRS questionnaire. The alleviating effects on female menopause symptoms were assessed by allowing the middle-aged women clinical subjects to fill out the Menopause Rating Scale (MRS) questionnaire pre- and post-intake of the placebo, pinitol, or D-chiro-inositol. [table] In order to assess the alleviating effects of female menopause symptoms by pinitol and D-chiro-inositol, a Korean-version Menopause Rating Scale (MRS) survey was performed. Eighty middle-aged 40 or more were divided into four groups, a placebo group and pinitol administration groups, each having ten women, and similarly, were divided into four groups, a placebo group and D-chiro-inositol administration groups, each having ten women. Thereafter, the placebo and 600 mg, 1,200 mg, and 2,400 mg of pinitol or D-chiro-inositol were administered once a day for 8 weeks in a double-blind fashion. The women were allowed to fill out the Menopause Rating Scale (MRS) questionnaire before and after taking the placebo, pinitol, or D-chiro-inositol. The scores of the MRS questionnaire were calculated as a total score. The 0-4 points indicate a good menopausal state, which is a smooth menopause state. A total of 5-8 points indicate a slight menopausal state, requiring management. A total of 9-15 points indicate a severe menopausal state, requiring precise diagnosis and treatment by specialists because of menopausal diseases. Last, a total of 16 points or more indicates an extremely severe menopausal state, thereby urgently requiring therapy through minute management and long-term plans. […] The MRS measurement results could confirm that pinitol alleviated female menopause symptoms caused by female hormone reduction, such as reduction of sexual desire, insomnia, urogenital diseases and infections, joint and muscular diseases, depression, and hypersensitiveness.

[6] = 10 mg/kg oral once a day for 8 weeks
[7] = 20 mg/kg oral once a day for 8 weeks
[8] = 40 mg/kg oral once a day for 8 weeks
[9] = middle-aged women, 600 mg a day for 8 weeks
[10] = middle-aged women, 1,200 mg a day for 8 weeks
[11] = middle-aged women, 1,400 mg administration group, 8 weeks
[12] = middle-aged women, 600 mg once a day for 8 weeks
[13] = middle-aged women, 1,200 mg once a day for 8 weeks
[14] = middle-aged women, 2,400 mg once a day for 8 weeks

SMILES	17β-estradiol level in the blood compared with control group [1]	decrease of SHBG level in the blood compared with control group [2, 6]	decrease of SHBG level in the blood compared with control group [2, 7] [nmol/L]	decrease of SHBG level in the blood compared with control group [2, 8] [nmol/L]	17β-estradiol level in the blood compared with placebo administration group [3]	17β-estradiol level in the blood, pre- versus post-administration [3]	decrease of SHBG level in the blood compared with placebo administration group [4, 9]	decrease of SHBG level in the blood compared with placebo administration group [4, 10] [nmol/L]	decrease of SHBG level in the blood compared with placebo administration group [4, 11] [nmol/L]	decrease of average MRS score compared with placebo group [5, 12] [points]	alleviation rate of menopausal symptoms [5, 12]	decrease of average MRS score compared with placebo group [5, 13] [points]	alleviation rate of menopausal symptoms [5, 13] [%]	decrease of average MRS score compared with placebo group [5, 14] [points]	alleviation rate of menopausal symptoms [5, 14] [%]	MRS score post-taking compared with placebo taking group and pre-taking [5]	SHBG level in the blood, pre- versus post-administration ([4]; middle-aged women, 8 weeks)
O[C@H]1[C@H](O)[C@H](O)[C@@H](O)[C@H](O)[C@H]1O [D-chiro-inositol]	significantly increased in a concentration-dependent manner	about 7.0 nmol/L	~16.2	~21.1	significantly increased in a concentration-dependent manner	no particular difference	about 8.7 nmol/L	~15.9	~18.4	5.7	about 40.7%	9.7	~69.3	10.3	~73.6	significantly decreased	
CO[C@H]1[C@H](O)[C@@H](O)[C@@H](O)[C@H](O)[C@@H]1O [pinitol]	significantly increased in a concentration-dependent manner	about 4.2 nmol/L	~10.0	~12.2	significantly increased in a concentration-dependent manner	no particular difference	about 8.3 nmol/L	~16.0	~18.6	4.3	about 32.6%	8.4	~63.6	9.1	~68.9	significantly decreased	no particular difference
